In a melting point compilation (Tetko et al.; mined from patent text by program, amines drawn as free bases though some values may be those of a salt):

Compound | melting point [°C]
COc1ccc(C2(C34CC5CC(CC(C5)C3)C4)N=C(N)N(C)C2=O)cc1 (stereo unspecified) | 150 to 155
Cc1nc(Cl)c([N+](=O)[O-])c(NCC(C)(C)N)c1C | 89 to 94
COc1ccc(Cc2oc3ccc(OC)cc3c2CC#N)cc1 | 83
CC(C)(C(=O)O)n1c(=O)[nH]c2ccc(Cl)cc2c1=O | 256 to 259
CNC(=NC(=O)OC)N(C)C | 80 to 85
N#CC1=C(C2CCCCC2=O)Nc2n[nH]cc2C1c1cccc2nonc12 (stereo unspecified) | > 270
CN(C)C(=O)c1ccccc1-c1ccc(C(=O)N2Cc3ccc(C(=O)NCc4cccnc4)n3Cc3ccccc32)cc1 | 206 to 207
Cn1cc(C2=C(c3c4n(c5ccccc35)CCC(NC(=O)OC(C)(C)C)C4)C(=O)NC2=O)c2ccccc21 (stereo unspecified) | 153 to 155
N#Cc1ccnc(Nc2ccc(-n3nc(C(F)(F)F)cc3C(F)(F)F)cc2)c1 | 152 to 153
CCCCc1nc2ccc(C3=NN4CCCC4C3)cc2c(=O)n1Cc1ccc(-c2ccccc2-c2nnn[nH]2)cc1 (stereo unspecified) | 126
O=C(O)[C@H](Cc1ccc(-c2ccccc2)cc1)NCP(=O)(Oc1ccccc1)Oc1ccccc1 | 118 to 119
O=[N+]([O-])c1cccc(-c2csc(NS(=O)(=O)c3ccc(Cl)c(Cl)c3)n2)c1 | 189 to 191
Nc1sc(-c2ccoc2)c(CN(C2CCCCC2)C2CCCCC2)c1C(=O)c1ccc(Cl)cc1 | 132 to 135
O=C(O)c1ccc(CN2C(=O)c3ccc(C(=O)O)cc3C2=O)cc1 | 365 to 366
O=c1oc(-c2cc(C(F)(F)F)cc(C(F)(F)F)c2)cc(O)c1Cc1ccccc1 | 80 to 82
Oc1ccc2ccccc2c1C1NCCc2ccccc21 (stereo unspecified) | 148 to 150
Cc1ccc(CSC[C@H](NC(=O)C(CS)Cc2ccc(-c3ccccc3)cc2)C(=O)O)cc1 (stereo partly specified) | 131 to 135
CC1CC2=C(CCC(O)C2)C2CCC3(C)C(CO)CCC3C12 (stereo unspecified) | 64 to 70
C=C(CC)C(=O)c1ccc(OCCCC(=O)O)c(Cl)c1Cl | 87 to 89
CC(=O)NC(=O)C(SCc1ccccc1)C(c1ccccc1)(c1ccccc1)c1ccccc1 (stereo unspecified) | 184 to 186
COc1cc(CCN)ccc1O | 156 to 158
N=C(Nc1ccc(Cl)cc1)NC1CCCCC1 | 187 to 190
O=C1NC(=O)c2ccc(Br)cc2/C1=C/N1CCN(CCN2CCOCC2)CC1 | 156
CC(C)(C)OC(=O)NCC1CCc2cc(C=O)ccc2C1 (stereo unspecified) | 115
CCS(=O)(=O)N1CCN(Cc2ccc(COc3cccc4c3CN(C3CCC(=O)NC3=O)C4=O)cc2)CC1 (stereo unspecified) | 135 to 137
CCCOC(=O)c1ccc(OCCCCCCCc2cc(C)no2)cc1 | 54

Compound | melting point [°C]
CCCCCCCCCCCCCCCCCCCCCCOC(=O)P(=O)(OC)OC | 60 to 61
O=C1CC2(CN1)CC(=O)c1cc(Cl)cc(Cl)c12 (stereo unspecified) | 226 to 228
Oc1cc(Br)ccc1Br | 71 to 74
O=C(O)CCc1nc(-c2ccccc2)cs1 | 72 to 73
O=Cc1cc(Br)c(Cl)s1 | 61 to 62
COc1ccccc1Oc1c(NS(=O)(=O)c2ccc(C(C)(C)C)cc2)ncnc1OCCO | 143 to 148
COc1ccc(N(C(=O)C(C)c2ccccc2)c2cccc(Nc3c(N)c(=O)c3=O)c2)cc1 (stereo unspecified) | 168 to 170
O=[N+]([O-])c1cnc(Sc2n[nH]c(-c3cccs3)n2)s1 | 179 to 181
COc1cc(NC(C)=O)c(Cl)cc1C(=O)NN1CCN(C)CC1 | 198 to 200
Nc1cc(Cl)cnc1F | 74
CCCCOC(=O)c1cc([N+](=O)[O-])c(Cl)c(S(N)(=O)=O)c1 | 140 to 141
CCn1c(=O)c(=O)[nH]c2ccc([N+](=O)[O-])cc21 | > 300
O=C(Nc1ccncc1)C1c2ccccc2CCc2ccccc21 | 148 to 149
Cc1c(C=O)c2cc(F)ccc2n1-c1ccc(OCc2ccccc2)cc1 | 219 to 220
CCOC(=O)C1=C(COCCCc2nc3ccccc3n2C)NC(C)=C(C(=O)NC(C)(C)C)C1c1ccccc1Cl (stereo unspecified) | 202
O=c1c2c(Cl)cc(Cl)cc2n(Cc2ccccc2)c(=O)n1Cc1ccccc1Br | 129 to 132
COC(=O)C(C)(C(=O)OC)C(C[N+](=O)[O-])c1ccccc1 (stereo unspecified) | 130 to 132
COC(=O)c1c(Cl)cc(C)nc1Oc1c(C)cc(C)cc1C | 127 to 128
O=C1CCCc2c1c1cccc(Cl)c1n2Cc1ccc(F)cc1 | 166
CCC1(CC(=O)O)OCCc2c1[nH]c1c(OCC(F)(F)F)cccc21 (stereo unspecified) | 126 to 129
Cc1nc(-c2ccc(C(F)(F)F)cc2)sc1CCOc1ccc(CC(=O)O)cc1 | 128 to 130
CN(C)c1cccc2c(S(=O)(=O)Nc3ccc(Br)nc3)cccc12 | 164 to 165
CC(=O)c1c(C)sc2ccnn12 | 130 to 131
CCC(=O)c1[nH]c(=O)[nH]c1C | 270 to 271
COC1(Cl)C=C(F)C=C(C=O)C1 (stereo unspecified) | 59 to 61
O=c1nc(-c2ccccc2)c2cc([N+](=O)[O-])ccc2[nH]1 | > 300

Compound | melting point [°C]
CN1CCN(c2n[nH]c(-c3ccc(F)cc3)c2-c2ccncc2)CC1 | 238 to 240
COc1cc2nc(N3CCNCC3)nc(N)c2cc1OC | 224 to 228
NC(=NCC(F)(F)F)Nc1ccnc(SCCCC2=NCCN2)n1 | 184 to 186
COC(C)CCC1(O)C2=NCCCN2c2cc(Cl)ccc21 (stereo unspecified) | 146 to 148
O=C(NC(Cc1ccccc1)C(=O)O)c1cc(-c2ccc(OCc3ccccc3)cc2)[nH]n1 (stereo unspecified) | 196 to 200
O=C(O)C(=O)c1ccc2c(c1)CCS2 | 122 to 123
COC(=O)c1ccc(OC)c(N(C(C)=O)c2cc(Cl)cc(Cl)c2)c1 | 100 to 101
Cc1c(NC(=O)c2cc3c(s2)CCCC3)cccc1-c1cn(C)c(=O)c(Nc2ccc([C@@H](C(=O)N(C)C)N(C)C(C)C)cc2)n1 | 133 to 134
O=S(=O)(CCl)c1c(Cl)nc(Cl)nc1Cl | 152 to 153
N#CCc1cccc(CCc2ccccc2C(=O)O)c1 | 113 to 120
COc1cc(CCBr)cc2c1OCO2 | 78 to 79
Nc1ccc(-c2cn(CCF)nn2)cc1 | 79 to 82
O=C(c1cc2ccc(N3CCCCC3)cc2o1)C12CC3CC(CC(C3)C1)C2 | 150 to 152
O=C1Cc2ccccc2SN1 | 175
Clc1ccc(C(=Cc2ccccc2Cl)Cn2cncn2)cc1 | 106 to 110
COc1ccc2c(C(=O)c3ccc(OC4CCCCC4N4CCCCCC4)cc3)c(-c3ccc(OCCN4CCCC4)cc3)sc2c1 (stereo unspecified) | 43.5 to 51.5
OC(CNC1=NCCN1)c1ccc(Cl)c(Cl)c1 (stereo unspecified) | 148
O=C(O)c1csc(-c2cccc(Cn3cc(C4c5ccccc5C=Cc5ccccc54)c(=S)[nH]c3=O)c2)n1 | 165
Cc1cc(C)c(C)c(C(=O)Cn2ccnc2)c1C | 176 to 178
COc1cc(CN2C(C(=O)O)=C(c3ccc4c(c3)OCO4)c3ccccc3S2(=O)=O)cc2c1OCO2 | 181 to 182
CC(C)(C)OC(=O)[C@@H](Cc1ccccc1)NC(=O)C1CN(c2ccc(C#N)cc2)C(=O)O1 (stereo partly specified) | 72
CCOC(=O)CCCNc1cccc(/C=C/c2nc3ccccc3s2)c1 | 68 to 69
CN(C)Cc1nc(CSCCNC(=C[N+](=O)[O-])NCC(O)c2ccccc2)cs1 (stereo unspecified) | 100 to 101
CCCCC[C@H]1CO[C@H](c2ccc(C(=O)O)cc2)OC1 | 210 to 211
NC(=O)c1cc([N+](=O)[O-])c(N2CC2)c([N+](=O)[O-])c1 | 228 to 231
Cc1c(SCCCSCc2ccncc2)ccnc1CNc1ncncc1Cl | 148 to 149

Compound | melting point [°C]
COC(=O)c1cc(-c2cc(-c3ccccc3O)nc(NC(=O)c3cccs3)c2C#N)ccc1OC | 271 to 273
O=C1c2ccccc2C(=O)N1C(Sc1ccccc1)c1ccccc1 (stereo unspecified) | 97 to 99
CC(=O)OCCCC(=C(c1ccccc1)c1ccccc1)c1ccccc1 | 80 to 81
CCOC(=O)C(C)(C)n1c(=O)[nH]c2cc(Cl)ccc2c1=O | 201 to 202
O=C(O)C12CC(c3ccccc31)c1ccccc12 | 200
Cc1ccc2nc(-c3ccc(-c4ccccc4)cc3)nc(C(=O)O)c2c1 | 193 to 196
Cc1ccc(C(=C(C=O)c2nnnn2C)c2ccc(C)cc2F)c(F)c1 | 154 to 155
CCC1Cc2cc(C(C)C(=O)O)ccc2O1 (stereo unspecified) | 70 to 72
CCOP(=O)(CCCCC1(C(=O)NCC(F)(F)F)c2ccccc2-c2ccccc21)OCC | 87 to 89
NC(=O)c1ccc(-c2cccc3cc(COc4cccc(C(F)(F)F)c4)sc23)cc1 | 191 to 192
COc1ccc(C2=NN(CC(=O)O)C(=O)[C@H]3CC=CC[C@@H]23)cc1OC (relative stereo) | 178 to 180
Nc1ccc(C(=O)Cn2c(-c3nonc3NCCC(=O)O)nc3ccccc32)cc1 | 174 to 177
COc1ccc(C2Cc3c(cccc3C(F)(F)F)NC(=O)C2CO)cc1 (stereo unspecified) | 189 to 190
CC(C)(C)NC(=O)Nc1nc2nc(NC3CCOCC3)ncc2cc1Oc1ccc(F)cc1F | 195 to 201
CC(C)(C)OC(=O)N1CCN(c2nccs2)CC1 | 114 to 116
Cc1ccc(S(=O)(=O)OCCC2(OC3CCCCO3)CC2)cc1 (stereo unspecified) | 56 to 57
O=C(O)Cc1ccc2oc(-c3ccccc3)nc2c1 | 175
CCOC(=O)c1c(C(F)(F)F)nc(C(F)(F)F)c(C)c1OCC(=O)c1ccccc1 | 95 to 97
CCC(CC)CC(NC(=O)COC)C1(c2ccc(Cl)c(Cl)c2)CCC1 (stereo unspecified) | 72 to 74
C#CCOC(=O)C1C(C)=NC(N2CCCCC2)=C(C(=O)OCC)C1c1cccc([N+](=O)[O-])c1 (stereo unspecified) | 121
Cn1nc(-c2ccc(Cl)c(Cl)c2)cc1C(=O)O | 252 to 256
O=CNn1cnc2cc(C(F)(F)F)ccc21 | 209 to 210
C=Cn1cccc(O)c1=S | 84
